Measurements from paper PMC10829540, “Natural transaminase fusions for biocatalysis” (RSC Advances, 2024).

How the values were obtained:
[1] = molecular target: T1, PpKTFusion (Pseudomonas putida, UniProt Q88J67); test: HPLC conversion of […] to […], non-linear regression to substrate inhibition equation; assay type: biochemical; settings: apparent, amine donor L-glutamate, 1.0 mM PLP, HEPES pH 7.7, 10% DMSO, 30 °C (conditions of Fig. 7F)
T1 construct: gene PP_2782; full-length fusion (N-terminal TAm 1-526, linker 527-562, C-terminal reductase 563-959); N-terminal His6-tag, pET-28a(+), E. coli
T1 sequence (Q88J67 1-959): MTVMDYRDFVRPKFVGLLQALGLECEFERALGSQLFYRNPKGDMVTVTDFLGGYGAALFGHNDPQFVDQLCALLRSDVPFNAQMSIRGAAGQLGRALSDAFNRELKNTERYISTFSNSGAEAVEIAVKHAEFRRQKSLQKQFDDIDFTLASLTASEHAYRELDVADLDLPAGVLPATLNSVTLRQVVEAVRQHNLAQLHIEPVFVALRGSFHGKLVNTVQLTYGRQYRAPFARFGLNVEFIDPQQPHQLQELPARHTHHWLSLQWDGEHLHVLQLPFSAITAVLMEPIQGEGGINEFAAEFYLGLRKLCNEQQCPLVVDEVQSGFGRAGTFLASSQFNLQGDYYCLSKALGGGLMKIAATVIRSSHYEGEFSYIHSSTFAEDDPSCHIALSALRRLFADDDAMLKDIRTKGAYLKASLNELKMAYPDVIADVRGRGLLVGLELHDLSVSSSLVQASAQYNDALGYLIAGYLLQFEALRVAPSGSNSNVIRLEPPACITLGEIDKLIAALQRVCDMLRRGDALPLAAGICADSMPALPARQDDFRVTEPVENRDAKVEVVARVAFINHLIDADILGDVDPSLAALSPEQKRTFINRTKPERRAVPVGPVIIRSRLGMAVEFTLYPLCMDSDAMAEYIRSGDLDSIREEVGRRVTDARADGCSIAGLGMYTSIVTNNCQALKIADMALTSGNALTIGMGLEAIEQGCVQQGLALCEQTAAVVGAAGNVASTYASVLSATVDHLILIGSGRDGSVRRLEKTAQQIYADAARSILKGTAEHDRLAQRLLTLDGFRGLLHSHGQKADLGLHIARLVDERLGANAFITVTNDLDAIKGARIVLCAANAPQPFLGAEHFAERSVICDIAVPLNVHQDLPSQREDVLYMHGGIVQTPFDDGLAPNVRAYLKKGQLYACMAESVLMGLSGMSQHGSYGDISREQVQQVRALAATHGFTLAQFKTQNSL

[2] = molecular target: T2, TfFusion (Thermincola carboxydiphila, UniProt A0A0L6W1G2); test: as above; assay type: biochemical; settings: apparent, amine donor L-glutamate, 1.0 mM PLP, HEPES pH 7.7, 10% DMSO, 50 °C (conditions of Fig. 7F)
T2 construct: gene Tfer_2018; full-length fusion; N-terminal His6-tag, pET-28a(+), E. coli

[3] = molecular target: T3, PpKTTAm (Pseudomonas putida, UniProt Q88J67); test: as above; assay type: biochemical; settings: apparent, amine donor L-glutamate, 1.0 mM PLP, HEPES pH 7.7, 10% DMSO, 30 °C (conditions of Fig. 7F)
T3 construct: gene PP_2782; truncated to N-terminal TAm domain (assigned residues 1-526); N-terminal His6-tag, pET-28a(+), E. coli
T3 sequence (Q88J67 1-526): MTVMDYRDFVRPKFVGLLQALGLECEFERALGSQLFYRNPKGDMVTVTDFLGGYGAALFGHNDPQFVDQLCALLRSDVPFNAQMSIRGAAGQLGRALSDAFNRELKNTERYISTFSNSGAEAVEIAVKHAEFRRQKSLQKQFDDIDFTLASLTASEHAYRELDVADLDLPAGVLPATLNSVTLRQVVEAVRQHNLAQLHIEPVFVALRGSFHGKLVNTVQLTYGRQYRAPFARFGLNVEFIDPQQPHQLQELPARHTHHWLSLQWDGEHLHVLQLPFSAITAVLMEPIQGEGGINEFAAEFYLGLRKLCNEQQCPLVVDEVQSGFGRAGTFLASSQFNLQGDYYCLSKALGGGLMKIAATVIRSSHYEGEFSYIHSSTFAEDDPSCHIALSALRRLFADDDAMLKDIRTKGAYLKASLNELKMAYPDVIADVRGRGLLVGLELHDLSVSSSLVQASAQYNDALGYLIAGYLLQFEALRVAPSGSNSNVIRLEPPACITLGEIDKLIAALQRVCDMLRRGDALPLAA

[4] = molecular target: T4, TfTAm (Thermincola carboxydiphila, UniProt A0A0L6W1G2); test: HPLC conversion of […] to […], non-linear regression; assay type: biochemical; settings: apparent; amine acceptor 3-phenylpropionaldehyde (10 mM), 1.0 mM PLP, HEPES pH 7.7, 10% DMSO, 50 °C (conditions of Fig. 7E); read-out: K ^app m
T4 construct: gene Tfer_2018; truncated to N-terminal TAm domain (borders only in ESI); N-terminal His6-tag, pET-28a(+), E. coli

[5] = substrate: N[C@@H](CCC(=O)O)C(=O)O; test: purified protein; assay type: biochemical, Thermincola carboxydiphila; settings: apparent, amine acceptor 3-phenylpropionaldehyde (10 mM), 1.0 mM PLP, HEPES pH 7.7, 10% DMSO, 50 °C (conditions of Fig. 7E)
[6] = substrate: O=CCCc1ccccc1; test: purified protein; assay type: biochemical, Thermincola carboxydiphila; settings: apparent, amine donor L-glutamate, 1.0 mM PLP, HEPES pH 7.7, 10% DMSO, 50 °C (conditions of Fig. 7F)

O=CCCc1ccccc1 [compound 13, 3-phenylpropionaldehyde]
K ^app i [1]: 3.37 µM
K ^app i [2]: 52.92 µM
K ^app i [3]: 5.13 µM

N[C@@H](CCC(=O)O)C(=O)O [compound 36, L-glutamate]
Km [4]: 9.57 mM

B1: TfFusion (Thermincola carboxydiphila) (protein)
chain: MKFSSLNPTMDKLFECFKLDVAYVKGEGTYLYDQAGNKYLDFIAQYGAVPFGYNPPELVAAAKKYFDLSLPSMVQPSIPVKAVELAEMLLQLAPGEMAQATFCQSGAEAVEVAIKLARSTTGKPKILSTKNSFHGKTMGALSATGRDVYQKPFFTPVPGFEHIPFGDLDMLENKMRTEGKQIAAFLVEPIQGEGGIIVPPEGYLKNAEIICRKYGVLLAVDEIQTGLGRTGELFACDREGVEPDILLLSKALGGGLVPLGVCLSTRQAWNEEFGRLHSSTFANNNFTCAIGLAVLNKLLENGRQLINNAKSAGNYLLKNLEDINRQYPGVIKEIRGRGLMLGLEFNEFDGSESFSMKYLAEQGGFSPLLAGYLLNVHKVRVAPFLNNPMTLRLQPSLTVATVEIDRALHGLERVVKALYYQDHCELYSYIIGKEPGPIRDFRSEKKAVTGSELLPEEKPTEKFAFLIHYPSSEDVIKNNPSFKKASKDILEKLIDWEASLDAEPEVIVHLPAIKSKAGKIAEGWLIGIPYSGRHMMEMPRKDAVKVLVTALDKAKALGARIVGLGAYTSVVSRGGSDLQGKGIAVTSGNSYTIATAFDALIEGARLMGIDPAESTGCVIGATGSIGRVCAILLAEEIDKLVLVGNPEKEKTSLRRMEQLADEIYTRAFREILAYKGKVAKIKGIAKWLKGFLDRKRKDDPEVWNKLLTALENQGFSINGYIHENLAAKGKYSNPPVKITVNIKQALLQSDLIISASNSTNHLIGPGHLKPGSVICDVARPPDVSEAVLEQRKDVLVIEGGLVQYPDDICFGQNMGYEPGVNMACLSETMLLALEGTYRDFSIGLKIPVENVYYLRELAQRHGFKLATPWNKNGGVTPEVARMIKEAALKNENVEKIKTPKSS
notes: full-length fusion; N-terminal His6-tag, pET-28a(+), E. coli
Km [5]: 16.44 mM
kcat [5]: 0.2672 s⁻¹
Km [6]: 50.61 mM
kcat [6]: 1.171 s⁻¹
